Assay results: ChEMBL document CHEMBL5321223, “Effects and mechanism of action of Chrysanthemum morifolium (Jinsi Huangju) on hyperlipidemia and non-alcoholic fatty liver disease” (Eur J Med Chem, 2023)

Assays:
[1] = molecular target: T1, Pancreatic triacylglycerol lipase (Homo sapiens) (UniProt P16233); experiment: Inhibition of Pancreatic lipase (unknown origin) using 4-methylumbelleallyl oleate as substrate at 50 uM by microplate reader assay
T1 sequence (whole entry): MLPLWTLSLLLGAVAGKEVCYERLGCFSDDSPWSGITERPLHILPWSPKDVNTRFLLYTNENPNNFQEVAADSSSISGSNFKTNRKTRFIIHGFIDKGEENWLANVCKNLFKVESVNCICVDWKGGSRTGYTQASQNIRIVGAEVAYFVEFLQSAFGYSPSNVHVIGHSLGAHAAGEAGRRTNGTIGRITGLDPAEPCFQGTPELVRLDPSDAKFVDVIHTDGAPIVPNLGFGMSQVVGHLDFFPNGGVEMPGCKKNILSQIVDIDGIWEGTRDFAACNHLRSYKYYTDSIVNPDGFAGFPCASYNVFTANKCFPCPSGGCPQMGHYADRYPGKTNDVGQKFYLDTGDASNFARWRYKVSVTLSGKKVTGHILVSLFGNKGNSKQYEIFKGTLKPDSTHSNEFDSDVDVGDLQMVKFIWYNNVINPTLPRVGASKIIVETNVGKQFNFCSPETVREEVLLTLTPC

[2] = test system: HepG2; experiment: Hypolipidemic activity in sodium oleate and sodium palmitate induced human HepG2 cells assessed as decrease in intracellular lipid content at 5 uM by Oil Red O staining based assay; type: functional; design: scale not given: the % may be the effect or the level left
[3] = test system: HepG2; experiment: Hypolipidemic activity in sodium oleate and sodium palmitate induced human HepG2 cells assessed as decrease in intracellular lipid content at 50 uM by Oil Red O staining based assay; type: functional; design: scale not given: the % may be the effect or the level left
[4] = test system: HepG2; experiment: Cytotoxicity against human HepG2 cells assessed as reduction in cell survival at 50 uM; type: toxicity, cell-based; details: hepg2, 50 µM
[5] = molecular target: T1, Pancreatic triacylglycerol lipase (Homo sapiens); experiment: Inhibition of Pancreatic lipase (unknown origin) using 4-methylumbelleallyl oleate as substrate at 5 uM by microplate reader assay

## O=C(O)CC(=O)OC[C@H]1O[C@@H](Oc2cc(O)c3c(=O)cc(-c4ccc(O)c(O)c4)oc3c2)[C@H](O)[C@@H](O)[C@@H]1O
[1]
  inhibition: 65.8%
[2]
  Activity: 61.5%
[3]
  Activity: 57.1%
[4]
  Activity: Non-Toxic

## O=c1cc(-c2ccc(O)cc2)oc2cc(O)cc(O)c12 [APIGENIN]
[1]
  inhibition: 56.3%
[5]
  inhibition: 26.7%
[2]
  Activity: 92.4%
[4]
  Activity: Toxic

## O=c1cc(-c2ccc(O)c(O)c2)oc2cc(O[C@@H]3O[C@H](CO)[C@@H](O)[C@H](O)[C@H]3O)cc(O)c12 [GALUTEOLIN]
[1]
  inhibition: 49.5%
[5]
  inhibition: 18.1%
[2]
  Activity: 62.5%
[3]
  Activity: 53.2%
[4]
  Activity: Non-Toxic
